Reference: ChEMBL document CHEMBL2413072, “Synthesis and in vitro anticancer studies of novel C-2 arylidene congeners of lantadenes” (2013)

Columns and labels:
Type in all cases: functional
[1] = test system: SW-620; assay: Growth inhibition of human SW620 cells by sulforhodamine B assay
[2] = test system: KM12; assay: Growth inhibition of human KM12 cells by sulforhodamine B assay
[3] = test system: NCI-H322M; assay: Growth inhibition of human NCI-H322M cells by sulforhodamine B assay
[4] = test system: HOP-62; assay: Growth inhibition of human HOP62 cells by sulforhodamine B assay
[5] = test system: HOP-92; assay: Growth inhibition of human HOP92 cells by sulforhodamine B assay
[6] = test system: K562; assay: Growth inhibition of human K562 cells by sulforhodamine B assay
[7] = test system: UACC-62; assay: Growth inhibition of human UACC62 cells assessed as cell growth at 10^-8 M by sulforhodamine B assay; conditions: read-out: Activity
[8] = test system: SW-620; assay: Growth inhibition of human SW620 cells assessed as cell growth at 10^-8 M by sulforhodamine B assay; conditions: read-out: Activity
[9] = test system: NCI-H460; assay: Growth inhibition of human NCI-H460 cells assessed as cell growth at 10^-8 M by sulforhodamine B assay; conditions: read-out: Activity
[10] = test system: NCI-H522; assay: Growth inhibition of human NCI-H522 cells assessed as cell growth at 10^-8 M by sulforhodamine B assay; conditions: read-out: Activity
[11] = test system: A549; assay: Growth inhibition of human A549/ATCC cells assessed as cell growth at 10^-8 M by sulforhodamine B assay; conditions: read-out: Activity
[12] = test system: MOLT-4; assay: Growth inhibition of human MOLT4 cells assessed as cell growth at 10^-8 M by sulforhodamine B assay; conditions: read-out: Activity
[13] = test system: SK-OV-3; assay: Growth inhibition of human SKOV3 cells by sulforhodamine B assay
[14] = Growth inhibition of human NCI-ADR-RES cells by sulforhodamine B assay
[15] = test system: IGROV-1; assay: Growth inhibition of human IGROV1 cells by sulforhodamine B assay
[16] = test system: SK-MEL-2; assay: Growth inhibition of human SK-MEL-2 cells by sulforhodamine B assay
[17] = test system: TK-10; assay: Growth inhibition of human TK10 cells assessed as cell growth at 10^-4 M by sulforhodamine B assay; conditions: read-out: Activity
[18] = test system: 786-0; assay: Growth inhibition of human 786-0 cells assessed as cell growth at 10^-4 M by sulforhodamine B assay; conditions: read-out: Activity
[19] = test system: IGROV-1; assay: Growth inhibition of human IGROV1 cells assessed as cell growth at 10^-4 M by sulforhodamine B assay; conditions: read-out: Activity
[20] = test system: UACC-62; assay: Growth inhibition of human UACC62 cells assessed as cell growth at 10^-4 M by sulforhodamine B assay; conditions: read-out: Activity
[21] = test system: HCT-116; assay: Growth inhibition of human HCT116 cells assessed as cell growth at 10^-4 M by sulforhodamine B assay; conditions: read-out: Activity
[22] = test system: NCI-H322M; assay: Growth inhibition of human NCI-H322M cells assessed as cell growth at 10^-4 M by sulforhodamine B assay; conditions: read-out: Activity
[23] = test system: MDA-MB-468; assay: Growth inhibition of human MDA-MB-468 cells assessed as cell growth at 10^-6 M by sulforhodamine B assay; conditions: read-out: Activity
[24] = Growth inhibition of human NCI-ADR-RES cells assessed as cell growth at 10^-6 M by sulforhodamine B assay; conditions: read-out: Activity
[25] = test system: OVCAR-4; assay: Growth inhibition of human OVCAR4 cells assessed as cell growth at 10^-6 M by sulforhodamine B assay; conditions: read-out: Activity
[26] = test system: SNB-19; assay: Growth inhibition of human SNB19 cells assessed as cell growth at 10^-6 M by sulforhodamine B assay; conditions: read-out: Activity
[27] = test system: SW-620; assay: Growth inhibition of human SW620 cells assessed as cell growth at 10^-6 M by sulforhodamine B assay; conditions: read-out: Activity
[28] = test system: HT-29; assay: Growth inhibition of human HT-29 cells assessed as cell growth at 10^-6 M by sulforhodamine B assay; conditions: read-out: Activity
[29] = test system: A549; assay: Growth inhibition of human A549/ATCC cells assessed as cell growth at 10^-6 M by sulforhodamine B assay; conditions: read-out: Activity
[30] = test system: PC-3; assay: Growth inhibition of human PC3 cells assessed as cell growth at 10^-7 M by sulforhodamine B assay; conditions: read-out: Activity
[31] = test system: 786-0; assay: Growth inhibition of human 786-0 cells assessed as cell growth at 10^-7 M by sulforhodamine B assay; conditions: read-out: Activity
[32] = test system: HCT-15; assay: Growth inhibition of human HCT15 cells assessed as cell growth at 10^-7 M by sulforhodamine B assay; conditions: read-out: Activity
[33] = test system: NCI-H460; assay: Growth inhibition of human NCI-H460 cells assessed as cell growth at 10^-7 M by sulforhodamine B assay; conditions: read-out: Activity
[34] = test system: HOP-92; assay: Growth inhibition of human HOP92 cells assessed as cell growth at 10^-7 M by sulforhodamine B assay; conditions: read-out: Activity
[35] = test system: K562; assay: Growth inhibition of human K562 cells assessed as cell growth at 10^-7 M by sulforhodamine B assay; conditions: read-out: Activity
[36] = Growth inhibition of human Hs 578T cells assessed as cell growth at 10^-8 M by sulforhodamine B assay; conditions: read-out: Activity
[37] = test system: TK-10; assay: Growth inhibition of human TK10 cells assessed as cell growth at 10^-8 M by sulforhodamine B assay; conditions: read-out: Activity
[38] = test system: CAKI-1; assay: Growth inhibition of human CAKI-1 cells assessed as cell growth at 10^-8 M by sulforhodamine B assay; conditions: read-out: Activity
[39] = read-out: LC50 (the source's name)
[40] = read-out: pLC50 (the source's name) (converted)

SMILES: C/C=C(/C)C(=O)O[C@@H]1CC(C)(C)C[C@H]2C3=CC[C@@H]4[C@@]5(C)CC[C@H](O)C(C)(C)[C@@H]5CC[C@@]4(C)[C@]3(C)CC[C@@]12C(=O)O [Reduced Lantadene A]
- GI50 ([1]; read-out: GI50): 2.31 µM
- CC50 [1, 39]: > 100 µM
- TGI ([1]; read-out: TGI): 6.62 µM
- GI50 ([1]; read-out: pGI50 (converted)): 2.29 µM
- CC50 [1, 40]: > 100 µM
- TGI ([1]; read-out: pTGI (converted)): 6.61 µM
- GI50 ([2]; read-out: GI50): 1.35 µM
- TGI ([2]; read-out: TGI): 2.93 µM
- GI50 ([2]; read-out: pGI50 (converted)): 1.35 µM
- TGI ([2]; read-out: pTGI (converted)): 2.95 µM
- GI50 ([3]; read-out: GI50): 1.78 µM
- LC50 (50% lethal concentration) ([3]; read-out: LC50): 6.74 µM
- TGI ([3]; read-out: TGI): 3.46 µM
- GI50 ([3]; read-out: pGI50 (converted)): 1.78 µM
- LC50 (50% lethal concentration) ([3]; read-out: pLC50 (converted)): 6.76 µM
- TGI ([3]; read-out: pTGI (converted)): 3.47 µM
- GI50 ([4]; read-out: GI50): 1.87 µM
- TGI ([4]; read-out: TGI): 3.55 µM
- GI50 ([4]; read-out: pGI50 (converted)): 1.86 µM
- TGI ([4]; read-out: pTGI (converted)): 3.55 µM
- GI50 ([5]; read-out: GI50): 1.41 µM
- CC50 [5, 39]: 6.21 µM
- TGI ([5]; read-out: TGI): 2.96 µM
- GI50 ([5]; read-out: pGI50 (converted)): 1.41 µM
- CC50 [5, 40]: 6.17 µM
- TGI ([5]; read-out: pTGI (converted)): 2.95 µM
- GI50 ([6]; read-out: GI50): 2.64 µM
- LC50 ([6]; read-out: LC50): > 100 µM
- TGI ([6]; read-out: TGI): 30.4 µM
- GI50 ([6]; read-out: pGI50 (converted)): 2.63 µM
- LC50 ([6]; read-out: pLC50 (converted)): > 100 µM
- TGI ([6]; read-out: pTGI (converted)): 30.2 µM
- growth at 0.01 µM [7]: 96%
- growth at 0.01 µM [8]: 99%
- growth at 0.01 µM [9]: 101%
- growth at 0.01 µM [10]: 102%
- growth at 0.01 µM [11]: 93%
- growth at 0.01 µM [12]: 103%
- GI50 ([13]; read-out: GI50): 1.87 µM
- GI50 ([13]; read-out: pGI50 (converted)): 1.86 µM
- GI50 ([14]; read-out: GI50): 2.17 µM
- CC50 [14, 39]: > 100 µM
- TGI ([14]; read-out: TGI): 5 µM
- GI50 ([14]; read-out: pGI50 (converted)): 2.19 µM
- CC50 [14, 40]: > 100 µM
- TGI ([14]; read-out: pTGI (converted)): 5.01 µM
- GI50 ([15]; read-out: GI50): 2.32 µM
- CC50 [15, 39]: 9.24 µM
- TGI ([15]; read-out: TGI): 4.63 µM
- GI50 ([15]; read-out: pGI50 (converted)): 2.29 µM
- CC50 [15, 40]: 9.33 µM
- TGI ([15]; read-out: pTGI (converted)): 4.68 µM
- GI50 ([16]; read-out: GI50): 2.2 µM
- CC50 [16, 39]: 8.29 µM
- TGI ([16]; read-out: TGI): 4.27 µM
- GI50 ([16]; read-out: pGI50 (converted)): 2.19 µM
- CC50 [16, 40]: 8.32 µM
- TGI ([16]; read-out: pTGI (converted)): 4.27 µM
- growth at 100 µM [17]: -69%
- growth at 100 µM [18]: -55%
- growth at 100 µM [19]: -58%
- growth at 100 µM [20]: -70%
- growth at 100 µM [21]: -62%
- growth at 100 µM [22]: -71%
- growth at 1 µM [23]: 84%
- growth at 1 µM [24]: 96%
- growth at 1 µM [25]: 88%
- growth at 1 µM [26]: 85%
- growth at 1 µM [27]: 90%
- growth at 1 µM [28]: 105%
- growth at 1 µM [29]: 61%
- growth at 0.1 µM [30]: 88%
- growth at 0.1 µM [31]: 97%
- growth at 0.1 µM [32]: 101%
- growth at 0.1 µM [33]: 99%
- growth at 0.1 µM [34]: 76%
- growth at 0.1 µM [35]: 105%
- growth at 0.01 µM [36]: 94%
- growth at 0.01 µM [37]: 103%
- growth at 0.01 µM [38]: 96%
